Results reported in patent US12240870B2, “Sequencing method for CAR T cell therapy” (Purdue Research Foundation, priority 2018, dated 2025).
pKd: −log10 of the molar value.

Experiments:
MDA-MB-231 xenografts = assay: EC17 dose finding and CRS assessment in MDA-MB-231 tumor-bearing mice; type: in vivo; conditions: for human IFNγ in mouse plasma, fold over tumor-bearing mice with CAR-T cells only: all EC17 treated tumor cohorts
Description: Panel A: Schematic diagram to show dose scheduling of CAR-T cells (˜10 million “clinical facsimile”) plus EC17 dosed 3 different ways in NSG mice without or with pre-established MDA-MB-231 xenografts. Tumor-free mice received EC17 SIW 500 nmol/kg (2 doses on days 2 and 10). Tumor-bearing mice received EC17 as follows: EC17 SIW 500 nmol/kg (5 doses on days 2, 10, 17, 24, and 31), EC17 M/Th/M_Escalation-1 (repeats of 5/50/500 nmol/kg on Monday/Thursday/Monday followed by 1-week break, i,e. on days 2, 6, 10, 17, 20, 24, and 31), or EC17 M/Th/M_Escalation-2 (repeats of 5/100/1000 nmol/kg on Monday/Thursday/Monday followed by 1-week break, i.e. days 2, 6, 10, 17, 20, 24, and 31). Panel B: Systemic levels of human IFNγ on a log 2 scale detected in mouse plasma on days 11 and 12 after CAR-T cell injection in tumor-bearing versus tumor-free mice (i.e., ˜20 and 42 hours after the previous EC17 dose in all treated cohorts). Panel C: Circulating CAR-T cells in mouse blood identified as human CD3ε+ EGFRt+ events by flow cytometry and enumerated per 100 μL of whole blood. Panel D: Measurements of change in body weight and tumor volume in tumor-bearing mice that received CAR-T cells only or CAR-T cells plus EC17 dosed 3 different ways (dashed lines indicated each EC17 dose). n=5 mice per group. All data represent mean±s.e.m. * p<0.05 by one-way ANOVA test.
All animal care and use were performed according to NIH guidelines and in compliance with protocols approved by the Purdue University Animal Use and Care Committee. Female 4 to 5-week-old NOD/SCID gamma (NSG™) mice (stock number: 005557) were purchased from The Jackson Laboratory (Bar Harbor, ME). Unless specifically indicated, all animals were maintained on a FA-deficient diet (TestDiet, St. Louis, MO) upon arrival and throughout the study. To establish subcutaneous xenografts, MDA-MB-231 and HOS-FRα were implanted in the right flank region at 2.5×10^6 and 1×10^6 cells per animal, respectively. For intravenous xenografts, THP1-FRβ cells were inoculated at 5×10^6 cells per animal. Subcutaneous tumors were measured 2-3 times per week with a caliper and calculated using the ellipsoidal formula (length×width^2)/2. […] All animal doses (CAR-T cells, EC17, sodium fluorescein) were given intravenously.
In a therapeutic setting, EC17 CAM can be given before or after CAR-T cell injection. As described herein, the first dose of EC17 was administered 2-3.5 days after CAR-T cells to allow for an observation period of human T cells in tumor-bearing mice. Two batches of unsorted E2-CAR-T cells (23% or 39% EGFRt+, 1:1 CD4/CD8) were used for in vivo studies. On the day of infusion for each experiment (day 0), frozen CAR-T cells were quickly thawed at 37° C., washed 2× with Dulbecco's 1×PBS (pH 7.4) and injected into the tail vein at desired EGFRt+ E2-CAR-T cell doses. In addition, a small aliquot of CAR-T cells was analyzed by flow cytometry for CD4 to CD8 ratio and differentiation status of CAR-T cells. On the first day of EC17 dose, tumor-bearing animals were randomly assigned into groups according to their tumor sizes or the same number of days post intravenous implantation (i.e., THP1-FRβ).
For MDA-MB-231 studies, mice received a high dose (˜10 million) of a “clinical facsimile” of E2-CAR-T cells (˜39% EGFRt+) with a low differentiation profile (FIG. 9). Two days later, 3 different treatment regimens of EC17 were started at an average tumor size of ˜293±39 mm^3 (FIG. 12). The EC17 dosing was given once-a-week (SIW) at 500 nmol/kg on Mondays, or as escalating doses of 5, 50 or 100, and 500 or 1000 nmol/kg (i.e., 5/50/500 or 5/100/1000) on Monday, Thursday, and Monday with a 6-day break in-between cycles. Control mice were left untreated (received CAR-T cells but no EC17). For comparison, a cohort of tumor-free littermates also received the same number of CAR-T cells without or with EC17 SIW at 500 nmol/kg. […]

FRβ (CHO-β) = biological target: T1, FRβ (CHO-β) (Homo sapiens, UniProt P14207); assay: 3H-EC17 cell-based radioligand binding assay on CHO-β cells; conditions: 2 h at 37° C.
T1 construct: expressed in transfected cells; host or cells: CHO (Chinese hamster ovary) cells
T1 sequence (P14207 17-230): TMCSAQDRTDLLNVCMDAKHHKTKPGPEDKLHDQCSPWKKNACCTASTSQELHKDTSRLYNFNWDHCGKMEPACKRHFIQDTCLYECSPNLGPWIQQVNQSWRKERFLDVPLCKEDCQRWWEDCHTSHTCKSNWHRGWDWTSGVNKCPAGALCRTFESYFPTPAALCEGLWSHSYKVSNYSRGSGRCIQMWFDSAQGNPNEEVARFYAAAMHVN
Procedure: FIG. 10, Panel A: Kd values of ^3H-EC17 uptake by FR+ target cells after a 2 hour incubation at 37° C. (calculated from the numbers of molecules bound per cell). Panel B: Kd value of ^3H^−EC17 uptake by E2-CAR-T cells (˜24% EGFRt+, ˜95:5 CD8/CD4 ratio) after a 2 hour incubation at room temperate (calculated from total cell-associated radioactivity, DPM).
The bispecific affinities of EC17 CAM (a CAM is equivalent to a “bridge” or the “compound” in this application) were assessed using ^3H-EC17 in cell-based radioligand binding assays. […] The whole cell lysates were quantitated for the level of radioactivity and cellular protein content by standard Pierce BCA protein assay. The number of ^3H-EC17 molecules bound per cell was calculated to determine the dissociation constants (Kd) for FRα (KB) and FRβ (CHO-β) respectively (FIG. 10).
The EC17 has already been tested in the clinic for immunotherapy and optical imaging purposes. To directly quantify its bispecific binding affinities, ^3H-EC17 was synthesized and radioligand binding assays were carried out on KB and CHO-β cell lines representing FRα+ and FRβ+ target cells, respectively, and on unsorted EGFRt CAR-T cells representing the effector cells.

Structure (SMILES): Nc1nc2ncc(CNc3ccc(C(=O)N[C@@H](CCC(=O)NCCNC(=S)Nc4ccc(-c5c6ccc(=O)cc-6oc6cc(O)ccc56)c(C(=O)O)c4)C(=O)O)cc3)nc2c(=O)[nH]1 [EC17, FA-(γ)-ethylenediamine-FITC]
- cures (MDA-MB-231 xenografts; EC17-treated cohorts (SIW, Escalation-1, Escalation-2)): 100%
- body weight loss (MDA-MB-231 xenografts; EC17 Escalation-2 regimen 5/100/1000 nmol/kg M/Th/M): persistent body weight loss
- onset of CRS and body weight loss (MDA-MB-231 xenografts; EC17 SIW at 500 nmol/kg): earliest onset of CRS and body weight loss
- human IFNγ in mouse plasma, fold over tumor-bearing mice with CAR-T cells only (MDA-MB-231 xenografts; day 11 (~20 hours after previous EC17 dose), ~10 million CAR-T): ~30 ×
- human IFNγ in mouse plasma, fold over tumor-bearing mice with CAR-T cells only (MDA-MB-231 xenografts; day 12 (~42 hours after previous EC17 dose), ~10 million CAR-T): ~10 ×
- body weight loss (MDA-MB-231 xenografts; tumor-bearing cohorts, continued EC17 dosing independent of the regimen): significant body weight losses
- CRS grade (MDA-MB-231 xenografts; tumor-bearing cohorts, continued EC17 dosing independent of the regimen, ~10 million CAR-T): 2-3
- pKd (FRβ (CHO-β)): 9.10
